Laboratory results reported in patent US10870654B2, “Pharmaceutically acceptable salts and polymorphic forms of hydrocodone benzoic acid enol ester and processes for making same” (KemPharm, Inc., priority 2013, dated 2020).
Like-named read-outs stand apart in the source and are kept apart here.

Legend:
[1] = 37° C.; for water solubility: hydrochloride
Description: Hydrocodone benzoic acid enol ester HCl exists in at least 6 distinct solid forms, designated herein as Forms I-V and amorphous. FIG. 1 is a scheme that depicts the general processes for converting hydrocodone benzoic acid enol ester HCl between its polymorphic forms I-V. Each polymorph has different characteristics, including solubility and stability.

[2] = RH>90% at room temperature; hydrochloride
[3] = Experimental: A number of experiments were performed to map out the relative stability of Forms I to V. Prior to the relative stability tests, the solids of Forms I, II and III were dried in the oven to remove surface water.

**Q.** Which results are given for `COc1ccc2c3c1O[C@H]1C(OC(=O)c4ccccc4)=CC[C@@H]4[C@@H](C2)N(C)CC[C@@]341.Cl` [Form I, hydrocodone benzoic acid enol ester hydrochloride]?
**A.** water solubility [1]: about 24 mg/mL; stability under high humidity [2]: stable for at least two weeks; relative stability of forms in slurry ([3]; in water or organic solvents that contain water): always the most stable

**Q.** For `COc1ccc2c3c1O[C@H]1C(OC(=O)c4ccccc4)=CC[C@@H]4[C@@H](C2)N(C)CC[C@@]341.Cl` [Form II, hydrocodone benzoic acid enol ester hydrochloride], which water solubility [1] is on record?
**A.** Its water solubility is over 200 mg/mL.

**Q.** And the “water solubility relative to Form I” value ([1]; times higher than the solubility of Form I)?
**A.** Its value is 9 times.

**Q.** And the “stability under high humidity” value [2]?
**A.** The value was “hygroscopic and unstable, and converted to Form IV”.

**Q.** And the “relative stability of forms in slurry” value ([3]; in anhydrous organic solvents, especially at higher temperatures)?
**A.** Its value is “the more stable one”.

**Q.** With `COc1ccc2c3c1O[C@H]1C(OC(=O)c4ccccc4)=CC[C@@H]4[C@@H](C2)N(C)CC[C@@]341.Cl` [Form III, hydrocodone benzoic acid enol ester hydrochloride] as the compound, how does the “stability under high humidity” value [2] read?
**A.** Its value is “hygroscopic and unstable, and converted to Form V”.

**Q.** Which results are given for `COc1ccc2c3c1O[C@H]1C(OC(=O)c4ccccc4)=CC[C@@H]4[C@@H](C2)N(C)CC[C@@]341.Cl` [I + II + III, hydrocodone benzoic acid enol ester hydrochloride]?
**A.** Form after 1 day slurry ([3]; solvent Acetonitrile, 25° C.): I + traces of II; Form after 1 day slurry ([3]; solvent IPA, 25° C.): I + II; Form after 1 day slurry ([3]; solvent IPA, 50° C.): I + II
